Source: paper PMC8308845, “Discovery of Novel Chemical Series of OXA-48 β-Lactamase Inhibitors by High-Throughput Screening” (Pharmaceuticals, 2021)
In brackets after ≈: the same amount, converted by molar mass.

Key:
OXA-48 = target: T1, OXA-48 (Klebsiella pneumoniae, UniProt Q6XEC0); assay: Apparent Km and Vmax of nitrocefin with inhibitor; Ki and α determination; format: biochemical; details: for type of reversible inhibition: Lineweaver–Burk plots, with respect to nitrocefin; for α value: mixed model inhibition fit
T1 construct: made in house; host or cells: E. coli BL21(DE3), T7 expression system
T1 sequence (Q6XEC0 23-265, looked up): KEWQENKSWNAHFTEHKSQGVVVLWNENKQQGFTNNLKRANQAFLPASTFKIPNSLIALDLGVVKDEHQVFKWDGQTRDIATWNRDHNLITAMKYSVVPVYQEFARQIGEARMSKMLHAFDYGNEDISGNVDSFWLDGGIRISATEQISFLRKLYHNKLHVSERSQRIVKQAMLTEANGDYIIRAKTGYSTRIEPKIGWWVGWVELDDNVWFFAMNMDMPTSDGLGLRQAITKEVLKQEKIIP
Experimental: To further elucidate the type of reversible inhibition of compounds ID1 and ID2, double substrate (nitrocefin) and inhibitor titrations were run.
In this study, the characterization of the type of reversible inhibition was performed by the determination of the apparent Km and Vmax of nitrocefin in the presence of three concentrations of the selected inhibitors.
Stock AC30, AC50, and AC70 solutions for selected compounds were prepared at 200X in 100% DMSO. 2X compounds were prepared by diluting stock AC30, AC50 and AC70 solutions 1:100 in 1X reaction buffer.
20 μL of 2X compounds with 1% DMSO; 10 μL 4X enzyme (0.0014 ng/µL OXA-48 final concentration) were dispensed into preincubation plate and kept for 15′ at rt. […] Each compound ACn was tested in duplicate against each dose of nitrocefin. Compound activity was quantified on the fluorescence signal measured at 520 nm (kinetic measurement for 60 min of reaction). The initial velocity (V0) of the reaction was computed in the first 300′’ of measurements as robust slope. The slopes computed by Genedata Screener 13.0.5. were copied in GraphPad Prism (version 7.00, GraphPad Software Inc.) for the Michaelis-Menten analysis and the Lineweaver-Burk analysis. The average of slope replicates (n = 2) was transformed into double-reciprocal and linear regression analysis was applied.
a. When the Vmax value was independent from inhibitor concentration and the Km value of the substrate was directly proportional to the inhibitor concentration, the corresponding compound was assigned as competitive inhibitor.
V0 data obtained for the determination of apparent Km and Vmax of nitrocefin in the presence of three concentrations of the selected inhibitors, were used for the computation of Ki and a values using in GraphPad Prism (version 8.00, GraphPad Software Inc.) the mixed model inhibition/nonlinear regression curve fit method.

E. coli ATCC25922 = assay: MIC by broth microdilution, antibiotic-sensitive strain; format: cell-based; details: Escherichia coli, no β-lactam, BLI tested at 32 µg/mL, read-out: MIC, BLI alone
Text: (§1) To evaluate the capability of restoring β-lactam susceptibility, the two most promising representatives of SC_2 (ID3) and SC_7 (ID2) were screened alone and in combination with ampicillin (AMP) and IMP against sensitive and resistant Gram-negative bacteria. Avibactam and tazobactam were also included in the MIC characterization as BLI reference compounds. Specifically, we used E. coli ATCC25922 as antibiotic-sensitive strain, while E. coli ATCC BAA-2523 and K. pneumoniae ATCC BAA-2524 as β-lactam-resistant bacteria, producing OXA-48 carbapenemase.
(§2) Test compounds and tazobactam were tested at 32 µg/mL, while avibactam was applied at 4 µg/mL. […] Both antibiotics were selected for the combination study as they can be hydrolyzed by the target OXA-48 enzyme.
(§3) MIC values were determined by the broth dilution method and interpreted using published guidelines described by Clinical and Laboratory Standards Institute (CLSI).
(§4) All BLIs were dissolved in 100% DMSO and they were tested at a fixed concentration of 32 µg/mL and 1% of DMSO final concentration. Avibactam was used as reference β-lactamase inhibitor. All antimicrobials were prepared in line with CLSI susceptibility testing standards. AMP (USP # 1033000; batch no. K1M493) was dissolved at 5.12 mg/mL, IMP (USP # 1337809; batch no. R038R0) and avibactam (Biochem # NXL 104; batch no. 20180726) were dissolved at 1.28 mg/mL in the respective solvents recommended by CLSI (2). Solutions at 4X the final concentrations of the test range were made in Cation adjusted Mueller-Hinton broth (CA-MHB, BD # 212322; batch no. 6117994; Expiry date: 29.02.2020) by serial dilutions, and then diluted 2-fold with CA-MHB (for antimicrobials alone), or with the BLIs/avibactam (for combinations of new/reference inhibitors and antimicrobials). Moreover, all BLIs were tested alone at a fixed concentration of 32 μg/mL. The final concentration of DMSO in the test tubes was 1% for each different combination.
(§5) 50 μL of each well were then transferred from the masterblock into 96-well plates to whom were then added 50 μL of the final inoculum. MIC tests were performed by broth microdilution in line with CLSI susceptibility testing standards. Bacterial inocula were prepared at ca. 1 × 10^6 CFU/mL by diluting 100-fold a 0.5 McFarland suspension in CA-MHB with TES (TREK Diagnostic Systems, Product code: T3462; Batch: 356347; Expiry date: 12-Jun-2019). 50 μL of antibacterial solutions at 2 × the final concentrations were diluted 2-fold with 50 μL of inoculum to give a final inoculum of ca. 5 × 10^5 CFU/mL and desired test concentrations of antibacterial agents. Test plates were incubated according to CLSI guidelines and read visually. MIC values corresponded to the first well with no visible growth.

HepG2 cells = assay: Cytotoxicity assay (cell viability, alamarBlue); format: cell-based; details: 48 h incubation, dose response
Experimental: (§6) Based on the promising BLI profile of compound ID2, a preliminary in vitro ADMET assessment in terms of kinetic solubility and cytotoxicity was carried out. […] Also, it was tested for cell viability in dose response against HepG2 cells, following 48 h incubation time.
Compound ID2 was tested in cell viability assays with HepG2 cells. The viability of cultured cells was evaluated using alamarBlue staining as described by Nociari et al.. Concentration–response curves were prepared for each compound by testing eight concentrations in triplicate with three-fold dilutions starting from 100 µM to […]. After incubation for 48 h at 37 °C, the percentage of control activity was calculated by comparing the fluorescence reading in the presence of the test compound to that in the absence of a test compound (control). IC50 values were determined by non-linear regression analysis of the concentration–response curves. These parameters were obtained by Hill equation curve fitting. Chlorpromazine was used as a reference compound.

[1] = Aqueous solubility assay (PBS, pH 7.4); format: physicochemical; details: isotonic buffer pH 7.4, aqueous buffer, kinetic from dmso stock, buffered aqueous solution at pH 7.4, 200 μM nominal, 2% DMSO, room temperature
Experimental: as §6
Compound was dissolved in DMSO as stock solution and then added to isotonic buffer (pH 7.4) at a concentration of 200 μM (2% DMSO final concentration). After a 24 h incubation under shaking at room temperature, dissolved compound is measured by a chromatographic procedure with photodiode array detection. Metoprolol tartrate, rifampicin, ketoconazole, phenytoin, haloperidol, simvastatin, diethylstilbestrol, and tamoxifen were used as reference compounds for different solubility degrees.

[2] = test system: K. pneumoniae ATCC BAA-2524; assay: MIC by broth microdilution, β-lactam-resistant strain producing OXA-48; format: cell-based, Klebsiella pneumoniae; details: Klebsiella pneumoniae, ATCCBAA2524, no β-lactam, BLI tested at 32 µg/mL, read-out: MIC, BLI alone
Text: as §1, §2, §3, §4, §5

For `O=C(O)c1ccc(C=Nn2c(S)nnc2-c2ccccc2)cc1` [ID1], the “type of reversible inhibition” value (OXA-48) was “competitive” and the α value (OXA-48) was 5.50.

In the case of `CCc1ccc(-c2n[nH]c3nc(-c4ccc(C(=O)O)cc4)cc(C(=O)O)c23)cc1` [ID2], the “type of reversible inhibition” value (OXA-48) is reported as “competitive”, the α value (OXA-48) is reported as 5.44 and the MIC (E. coli ATCC25922) is reported as over 32 µg/mL. For the same molecule, the “cytotoxicity (no sign of toxicity up to the highest tested concentration)” value (HepG2 cells) was over 100 µM, the solubility kinetic at 24 h [1] was 179 µM (≈ 69.5 µg/mL) and the MIC [2] was over 32 µg/mL.

Work on `C[C@]1(Cn2ccnn2)[C@H](C(=O)O)N2C(=O)C[C@H]2S1(=O)=O` [tazobactam, reference compound] yielded an MIC [2] of over 32 µg/mL.
